Source: article PMC7070898 (Clinical and Translational Science, 2019)

Test: Safety and tolerability
Settings: for Subjects with TEAEs: all evobrutinib doses pooled
[1] = one subject, 200 mg single dose, day 11
[2] = part 1 single dosing, pooled evobrutinib
[3] = part 2 multiple dosing, pooled evobrutinib

SMILES: C=CC(=O)N1CCC(CNc2ncnc(N)c2-c2ccc(Oc3ccccc3)cc2)CC1 [evobrutinib]
- TEAE: Abdominal pain (SAD 100 mg, n = 6): 0 (0.0) n (%), (number of events)
- TEAE: Amylase increased (SAD 100 mg, n = 6): 0 (0.0) n (%), (number of events)
- TEAE: Application site pruritus (due to ECG stickers) (SAD 100 mg, n = 6): 0 (0.0) n (%), (number of events)
- TEAE: Back pain (SAD 100 mg, n = 6): 0 (0.0) n (%), (number of events)
- TEAE: Contact dermatitis (SAD 100 mg, n = 6): 0 (0.0) n (%), (number of events)
- TEAE: Dizziness (SAD 100 mg, n = 6): 0 (0.0) n (%), (number of events)
- TEAE: Dry eye (SAD 100 mg, n = 6): 0 (0.0) n (%), (number of events)
- TEAE: Dry mouth (SAD 100 mg, n = 6): 0 (0.0) n (%), (number of events)
- TEAE: Dyspepsia (SAD 100 mg, n = 6): 0 (0.0) n (%), (number of events)
- TEAE: Excoriation (SAD 100 mg, n = 6): 0 (0.0) n (%), (number of events)
- TEAE: Headache (SAD 100 mg, n = 6): 0 (0.0) n (%), (number of events)
- TEAE: Lipase increased (SAD 100 mg, n = 6): 0 (0.0) n (%), (number of events)
- TEAE: Multiple injuries (SAD 100 mg, n = 6): 0 (0.0) n (%), (number of events)
- TEAE: Nasal congestion (SAD 100 mg, n = 6): 1 (16.7) (1) n (%), (number of events)
- TEAE: Noncardiac chest pain (SAD 100 mg, n = 6): 0 (0.0) n (%), (number of events)
- TEAE: Odynophagia (SAD 100 mg, n = 6): 0 (0.0) n (%), (number of events)
- TEAE: Overall total (SAD 100 mg, n = 6): 1 (16.7) (1) n (%), (number of events)
- TEAE: URTI (SAD 100 mg, n = 6): 0 (0.0) n (%), (number of events)
- TEAE: Abdominal pain (SAD 200 mg, n = 6): 0 (0.0) n (%), (number of events)
- TEAE: Amylase increased (SAD 200 mg, n = 6): 1 (16.7) (1) n (%), (number of events)
- TEAE: Application site pruritus (due to ECG stickers) (SAD 200 mg, n = 6): 0 (0.0) n (%), (number of events)
- TEAE: Back pain (SAD 200 mg, n = 6): 0 (0.0) n (%), (number of events)
- TEAE: Contact dermatitis (SAD 200 mg, n = 6): 0 (0.0) n (%), (number of events)
- TEAE: Dizziness (SAD 200 mg, n = 6): 1 (16.7) (1) n (%), (number of events)
- TEAE: Dry eye (SAD 200 mg, n = 6): 0 (0.0) n (%), (number of events)
- TEAE: Dry mouth (SAD 200 mg, n = 6): 0 (0.0) n (%), (number of events)
- TEAE: Dyspepsia (SAD 200 mg, n = 6): 0 (0.0) n (%), (number of events)
- TEAE: Excoriation (SAD 200 mg, n = 6): 1 (16.7) (1) n (%), (number of events)
- TEAE: Headache (SAD 200 mg, n = 6): 0 (0.0) n (%), (number of events)
- TEAE: Lipase increased (SAD 200 mg, n = 6): 1 (16.7) (1) n (%), (number of events)
- TEAE: Multiple injuries (SAD 200 mg, n = 6): 0 (0.0) n (%), (number of events)
- TEAE: Nasal congestion (SAD 200 mg, n = 6): 0 (0.0) n (%), (number of events)
- TEAE: Noncardiac chest pain (SAD 200 mg, n = 6): 0 (0.0) n (%), (number of events)
- TEAE: Odynophagia (SAD 200 mg, n = 6): 0 (0.0) n (%), (number of events)
- TEAE: Overall total (SAD 200 mg, n = 6): 2 (33.3) (4) n (%), (number of events)
- TEAE: URTI (SAD 200 mg, n = 6): 0 (0.0) n (%), (number of events)
- TEAE: Abdominal pain (SAD 350 mg, n = 6): 0 (0.0) n (%), (number of events)
- TEAE: Amylase increased (SAD 350 mg, n = 6): 0 (0.0) n (%), (number of events)
- TEAE: Application site pruritus (due to ECG stickers) (SAD 350 mg, n = 6): 0 (0.0) n (%), (number of events)
- TEAE: Back pain (SAD 350 mg, n = 6): 0 (0.0) n (%), (number of events)
- TEAE: Contact dermatitis (SAD 350 mg, n = 6): 0 (0.0) n (%), (number of events)
- TEAE: Dizziness (SAD 350 mg, n = 6): 0 (0.0) n (%), (number of events)
- TEAE: Dry eye (SAD 350 mg, n = 6): 0 (0.0) n (%), (number of events)
- TEAE: Dry mouth (SAD 350 mg, n = 6): 0 (0.0) n (%), (number of events)
- TEAE: Dyspepsia (SAD 350 mg, n = 6): 0 (0.0) n (%), (number of events)
- TEAE: Excoriation (SAD 350 mg, n = 6): 0 (0.0) n (%), (number of events)
- TEAE: Headache (SAD 350 mg, n = 6): 0 (0.0) n (%), (number of events)
- TEAE: Lipase increased (SAD 350 mg, n = 6): 0 (0.0) n (%), (number of events)
- TEAE: Multiple injuries (SAD 350 mg, n = 6): 1 (16.7) (1) n (%), (number of events)
- TEAE: Nasal congestion (SAD 350 mg, n = 6): 0 (0.0) n (%), (number of events)
- TEAE: Noncardiac chest pain (SAD 350 mg, n = 6): 0 (0.0) n (%), (number of events)
- TEAE: Odynophagia (SAD 350 mg, n = 6): 0 (0.0) n (%), (number of events)
- TEAE: Overall total (SAD 350 mg, n = 6): 1 (16.7) (1) n (%), (number of events)
- TEAE: URTI (SAD 350 mg, n = 6): 0 (0.0) n (%), (number of events)
- TEAE: Abdominal pain (SAD 500 mg, n = 6): 0 (0.0) n (%), (number of events)
- TEAE: Amylase increased (SAD 500 mg, n = 6): 0 (0.0) n (%), (number of events)
- TEAE: Application site pruritus (due to ECG stickers) (SAD 500 mg, n = 6): 0 (0.0) n (%), (number of events)
- TEAE: Back pain (SAD 500 mg, n = 6): 0 (0.0) n (%), (number of events)
- TEAE: Contact dermatitis (SAD 500 mg, n = 6): 0 (0.0) n (%), (number of events)
- TEAE: Dizziness (SAD 500 mg, n = 6): 0 (0.0) n (%), (number of events)
- TEAE: Dry eye (SAD 500 mg, n = 6): 1 (16.7) (1) n (%), (number of events)
- TEAE: Dry mouth (SAD 500 mg, n = 6): 0 (0.0) n (%), (number of events)
- TEAE: Dyspepsia (SAD 500 mg, n = 6): 0 (0.0) n (%), (number of events)
- TEAE: Excoriation (SAD 500 mg, n = 6): 0 (0.0) n (%), (number of events)
- TEAE: Headache (SAD 500 mg, n = 6): 1 (16.7) (1) n (%), (number of events)
- TEAE: Lipase increased (SAD 500 mg, n = 6): 0 (0.0) n (%), (number of events)
- TEAE: Multiple injuries (SAD 500 mg, n = 6): 0 (0.0) n (%), (number of events)
- TEAE: Nasal congestion (SAD 500 mg, n = 6): 0 (0.0) n (%), (number of events)
- TEAE: Noncardiac chest pain (SAD 500 mg, n = 6): 0 (0.0) n (%), (number of events)
- TEAE: Odynophagia (SAD 500 mg, n = 6): 1 (16.7) (1) n (%), (number of events)
- TEAE: Overall total (SAD 500 mg, n = 6): 2 (33.3) (3) n (%), (number of events)
- TEAE: URTI (SAD 500 mg, n = 6): 0 (0.0) n (%), (number of events)
- TEAE: Abdominal pain (SAD pooled active, n = 36): 0 (0.0) n (%), (number of events)
- TEAE: Amylase increased (SAD pooled active, n = 36): 1 (2.8) (1) n (%), (number of events)
- TEAE: Application site pruritus (due to ECG stickers) (SAD pooled active, n = 36): 0 (0.0) n (%), (number of events)
- TEAE: Back pain (SAD pooled active, n = 36): 1 (2.8) (1) n (%), (number of events)
- TEAE: Contact dermatitis (SAD pooled active, n = 36): 2 (5.6) (2) n (%), (number of events)
- TEAE: Dizziness (SAD pooled active, n = 36): 1 (2.8) (1) n (%), (number of events)
- TEAE: Dry eye (SAD pooled active, n = 36): 1 (2.8) (1) n (%), (number of events)
- TEAE: Dry mouth (SAD pooled active, n = 36): 0 (0.0) n (%), (number of events)
- TEAE: Dyspepsia (SAD pooled active, n = 36): 1 (2.8) (1) n (%), (number of events)
- TEAE: Excoriation (SAD pooled active, n = 36): 1 (2.8) (1) n (%), (number of events)
- TEAE: Headache (SAD pooled active, n = 36): 2 (5.6) (3) n (%), (number of events)
- TEAE: Lipase increased (SAD pooled active, n = 36): 1 (2.8) (1) n (%), (number of events)
- TEAE: Multiple injuries (SAD pooled active, n = 36): 1 (2.8) (1) n (%), (number of events)
- TEAE: Nasal congestion (SAD pooled active, n = 36): 1 (2.8) (1) n (%), (number of events)
- TEAE: Noncardiac chest pain (SAD pooled active, n = 36): 0 (0.0) n (%), (number of events)
- TEAE: Odynophagia (SAD pooled active, n = 36): 1 (2.8) (1) n (%), (number of events)
- TEAE: Overall total (SAD pooled active, n = 36): 9 (25.0) (15) n (%), (number of events)
- TEAE: URTI (SAD pooled active, n = 36): 0 (0.0) n (%), (number of events)
- nontolerated dose (after SAD or MAD administrations): no nontolerated dose could be defined
- Subjects with TEAEs (after multiple dosing): 48.1%
- Subjects with TEAEs (after single dosing): 25%
- toxicity grade of increased amylase [1]: 3 grade
- toxicity grade of increased lipase (dose‐limiting TEAE) [1]: 4 grade
- Subjects with contact dermatitis at locations of ECG pads [2]: 5.6%
- Subjects with headache [2]: 5.6%
- severity of TEAEs (part 2 multiple dosing): All TEAEs reported were mild and no dose‐limiting adverse events were reported
- Subjects with fatigue [3]: 7.4%
- Subjects with gastrointestinal TEAEs [3]: 18.5%
- Subjects with headache [3]: 11.1%
- Subjects with skin irritation due to ECG pads [3]: 7.4%
- Subjects with upper respiratory tract infection [3]: 7.4%
- deaths or treatment-related SAEs (parts 1 and 2): no deaths or SAEs related to treatment
